Laboratory results: publication PMC9504029, “Identification and Characterization of Novel Small-Molecule SMOX Inhibitors” (Medical Sciences, 2022)
Read-outs that look alike come from different tables or passages of the source.

Experiments:
[1] = biological target: T1, recombinant human MAO-A (Homo sapiens, UniProt P21397); test: MAO-Glo assay, MAO-A; type: biochemical; conditions: for inhibition at 20 µM: read-out: % Inhibition at 20 μM ± SD, MAO-A
T1 construct: purchased Sigma-Aldrich M7316-1VL
T1 sequence (P21397 1-527): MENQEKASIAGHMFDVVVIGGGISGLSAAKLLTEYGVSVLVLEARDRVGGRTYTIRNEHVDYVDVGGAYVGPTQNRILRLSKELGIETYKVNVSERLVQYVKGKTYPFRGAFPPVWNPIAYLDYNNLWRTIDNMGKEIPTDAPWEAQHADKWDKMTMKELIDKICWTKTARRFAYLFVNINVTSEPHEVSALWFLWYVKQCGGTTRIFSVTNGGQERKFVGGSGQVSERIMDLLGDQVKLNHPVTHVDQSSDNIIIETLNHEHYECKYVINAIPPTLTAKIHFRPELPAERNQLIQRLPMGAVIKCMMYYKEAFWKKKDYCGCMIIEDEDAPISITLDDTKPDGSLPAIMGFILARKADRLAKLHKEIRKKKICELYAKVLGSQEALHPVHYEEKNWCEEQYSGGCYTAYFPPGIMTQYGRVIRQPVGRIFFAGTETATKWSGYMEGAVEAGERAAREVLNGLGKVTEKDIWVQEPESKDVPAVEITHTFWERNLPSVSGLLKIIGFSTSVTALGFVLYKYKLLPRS
Protocol: (§1) To determine selectivity, the compounds were tested for activity against the related FAD-dependent amine oxidase enzymes LSD1, MAO-A, and MAO-B. LSD1 activity was assessed using a commercially available assay kit (#700120, Cayman Chemical, Ann Arbor, MI, USA), in which the enzyme activity was determined by the horseradish peroxidase-catalyzed oxidation of 10-acetyl-3,7-dihydroxyphenoxazine to the highly fluorescent resorufin in response to H2O2 production. Monoamine oxidase activity was determined using recombinant human MAO-A and MAO-B (M7316-1VL & M7441-1VL, Sigma-Aldrich, St. Louis, MO, USA) and a commercially available assay kit (#V1401, MAO-Glo, Promega, Madison, WI, USA), which utilizes the MAO-catalyzed oxidation of a luciferin derivative coupled with esterase activity to produce luminescence. Fluorescent and luminescent readout was obtained using a SpectraMax M5 plate reader (Molecular Devices) equipped with SOFTmax PRO 7.0.3 software. […] Values were reported as mean % inhibition ± SD of triplicate assay wells normalized to background activity and compared to the vehicle control.

[2] = biological target: T2, SMOX (Homo sapiens, UniProt Q9NWM0); test: SMOX enzyme activity, HRP-luminol chemiluminescence assay; type: biochemical; conditions: 2 mM spermine; for inhibition at 20 µM: 20 µM compound, no pre-incubation, triplicate, read-out: % Inhibition at 20 μM ± SD, SMOX; for IC50: AUC over 60 s, pH 8
T2 construct: using 0.3 µg/mL of purified SMOX enzyme and 2 mM of spermine substrate
T2 sequence (Q9NWM0 whole entry): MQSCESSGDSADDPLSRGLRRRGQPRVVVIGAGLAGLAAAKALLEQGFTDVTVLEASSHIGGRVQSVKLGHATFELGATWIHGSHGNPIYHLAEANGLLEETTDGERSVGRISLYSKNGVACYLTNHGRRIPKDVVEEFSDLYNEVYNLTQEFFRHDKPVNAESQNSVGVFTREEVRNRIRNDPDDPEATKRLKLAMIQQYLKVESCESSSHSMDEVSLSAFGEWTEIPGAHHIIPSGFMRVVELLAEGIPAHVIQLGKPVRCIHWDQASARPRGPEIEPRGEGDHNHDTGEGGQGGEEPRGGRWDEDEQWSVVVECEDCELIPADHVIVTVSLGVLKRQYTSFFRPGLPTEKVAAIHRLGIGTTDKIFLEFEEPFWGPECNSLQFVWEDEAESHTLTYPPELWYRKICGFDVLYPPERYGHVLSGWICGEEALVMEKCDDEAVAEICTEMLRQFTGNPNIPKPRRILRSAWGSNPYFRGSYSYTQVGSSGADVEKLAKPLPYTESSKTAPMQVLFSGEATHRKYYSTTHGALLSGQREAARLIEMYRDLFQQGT
Protocol: As the catabolism of spermine by SMOX results in the stoichiometric production of H2O2, enzyme activity was quantified by chemiluminescence generated by the horseradish peroxidase-catalyzed oxidation of luminol in 96-well plates (Costar #3912; white, flat bottom), as previously described. All assays were performed in 0.083 M glycine buffer at a pH of 8 using 0.3 µg/mL of purified SMOX enzyme and 2 mM of spermine substrate. Phosphate buffer was not used to prevent the formation of polyamine–phosphate complexes. Enzyme reactions were initiated by the addition of SMOX and HRP to all other assay components; inhibitors were not pre-incubated with enzyme. Triplicate determinations were obtained for each measurement by recording the luminescence (AUC) over 60 s. Hit compounds were then confirmed by monitoring the assay over 600 s. Each triplicate assay point contained a 4th control well to monitor and normalize the data with regards to luminescent decay over time. The compounds were initially screened for activity at a concentration of 20 µM. […] The known SMOX inhibitor, MDL-72527, was used as a control. The hit compounds were then characterized by IC50 and kinetic analyses. Percent inhibition values are reported as triplicate mean % SMOX inhibition ± SD compared to the vehicle control. IC50 values were calculated in GraphPad Prism 9.3 software (Graph-Pad, San Diego, California) using a non-linear regression analysis ([Inhibitor] vs. normalized response—variable slope). Data for all enzyme assays were generated using a SpectraMax M5 plate reader (Molecular Devices) equipped with SOFTmax PRO 7.0.3 software.

[3] = biological target: T3, LSD1 (Homo sapiens, UniProt O60341); test: LSD1 selectivity assay (Cayman kit, resorufin fluorescence); type: biochemical; conditions: read-out: % Inhibition at 20 μM ± SD, LSD1
T3 construct: purchased Cayman Chemical #700120

[4] = biological target: T4, recombinant human MAO-B (Homo sapiens, UniProt P27338); test: MAO-Glo assay, MAO-B; type: biochemical; conditions: for inhibition at 20 µM: read-out: % Inhibition at 20 μM ± SD, MAO-B
T4 construct: purchased Sigma-Aldrich M7441-1VL
T4 sequence (P27338 1-520): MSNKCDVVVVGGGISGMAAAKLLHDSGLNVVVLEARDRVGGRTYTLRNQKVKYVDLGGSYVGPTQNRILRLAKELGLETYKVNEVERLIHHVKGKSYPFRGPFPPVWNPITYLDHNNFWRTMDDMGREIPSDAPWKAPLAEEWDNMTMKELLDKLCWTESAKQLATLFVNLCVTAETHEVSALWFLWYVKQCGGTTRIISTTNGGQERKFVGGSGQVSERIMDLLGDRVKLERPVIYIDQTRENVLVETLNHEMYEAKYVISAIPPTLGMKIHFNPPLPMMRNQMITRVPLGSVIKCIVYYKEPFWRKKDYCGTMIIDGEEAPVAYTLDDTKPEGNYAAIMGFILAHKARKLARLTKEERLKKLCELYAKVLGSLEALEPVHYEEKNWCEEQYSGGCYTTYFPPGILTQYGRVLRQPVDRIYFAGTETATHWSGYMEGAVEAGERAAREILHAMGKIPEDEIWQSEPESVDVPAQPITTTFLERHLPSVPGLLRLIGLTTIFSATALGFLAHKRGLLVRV
Protocol: as §1

[5] = Cytotoxicity analysis, MTS assay; type: cell-based; conditions: human, SH-SY5Y neuroblastoma cells, MTS
Protocol: (§2) SH-SY5Y neuroblastoma cells purchased from ATCC (Manassas, VA, USA) were cultured in Dulbecco’s modified Eagle medium (DMEM) without phenol red and supplemented with 10% heat inactivated human AB serum, 4 mM L-glutamine, and 1% penicillin/streptomycin. As the oxidation of spermine by various polyamine oxidases has been documented in cell culture containing ruminant serum, such as in fetal bovine serum (FBS) and horse serum, human AB serum was used to prevent assay interference. The cells were maintained in 5% CO2 humidified atmosphere at 37 °C. Cell media was replaced every 2 days and the cells were discarded after a maximum of 15 passages.
(§3) The SH-SY5Y neuroblastoma cells were plated in 96-well plates at a density of 30,000 cells/well and allowed to reach 80% confluence, followed by treatment with varying concentrations of inhibitor ranging from 0 to 10 mM for 12 h. Cell viability was assessed by standard MTS assay, in which MTS reagent was added to each well at a concentration of 0.33 mg/mL and incubated at 37 °C for 3 h. Viability was monitored and confirmed by a visual inspection of the cells. Absorbance was read at 490 nm and the absorbance values were normalized to background wells containing varying concentrations of inhibitor, cell media, and MTS reagent. Colorimetric readout was obtained using a SpectraMax M5 plate reader (Molecular Devices) equipped with SOFTmax PRO 7.0.3 software.

[6] = tested on: SH-SY5Y neuroblastoma cells; test: Cytotoxicity analysis, MTS assay; type: cell-based; conditions: doses below 1 mM
Protocol: as §2, §3

[7] = biological target: T2, SMOX; test: Mechanism of inhibition and enzyme kinetics (Lineweaver–Burk, global fit); type: biochemical
Protocol: The mechanism of enzyme inhibition was determined using the HRP-luminol coupled enzyme assay described above. Reaction velocity (max RLU/sec over 10 min) was measured across multiple substrate and inhibitor concentrations, and individual triplicate values were plotted using a Lineweaver–Burk transformation (double-reciprocal) in GraphPad Prism 9.3 software (Graph-Pad, San Diego, CA, USA).

[8] = biological target: T2, SMOX; conditions: cited from earlier work

| SMILES | inhibition at 20 µM [2] | IC50 [2] | inhibition at 20 µM [3] | inhibition at 20 µM [1] | inhibition at 20 µM [4] | Mechanism of inhibition of SMOX [8] | further results |
| --- | --- | --- | --- | --- | --- | --- | --- |
| N[C@@H]1C[C@H]1c1ccccc1 (racemic) [TCP, Tranylcypromine, reference compound] | – | – | – | – | – | – | % Inhibition at 20 μM ± SD, MAO-A [1]: 92.6 ± 0.2% |
| N=C(N)NCCCNCC(O)c1cc(O)cc(O)c1 (stereo not drawn) [Compound 2] | 93.6 ± 1% | 8.3 µM | -18.7 ± 9.8% | -5.5 ± 4.2% | 3.5 ± 1.3% | – | – |
| N=C(N)NCCCCNCC(O)c1cc(O)cc(O)c1 (stereo not drawn) [Compound 3] | 96.7 ± 0.2% | 6.02 µM | 41.6 ± 24.4% | -13.7 ± 4.6% | -16.9 ± 12.3% | – | – |
| N=C(N)NCCNCC(O)c1ccc(O)c(O)c1 (stereo not drawn) [Compound 4] | 95.7 ± 0.3% | 0.23 µM | 31.9 ± 12.6% | 15.5 ± 0.5% | 12.6 ± 1.6% | – | CC50 at 12 h ([5]; 12 h post treatment, read-out: LC50 (dose corresponding to 50% viability)): 3600 µM; Toxicity after 12-h exposure [6]: did not produce significant toxicity |
| N=C(N)NCCCNCC(O)c1ccc(O)c(O)c1 (stereo not drawn) [Compound 5] | 96.3 ± 0.1% | 0.47 µM | 46.2 ± 25.7% | 7.3 ± 0.7% | 4.5 ± 9.5% | – | – |
| N=C(N)NCCCNCC(O)c1cc(O)ccc1O (stereo not drawn) [Compound 7] | 99.9 ± 0.1% | 0.23 µM | > 73% | 45% | 29% | – | Mechanism of inhibition ([7]; Lineweaver–Burk analysis): competitive; Ki ([7]; global fit for competitive inhibition, inhibitor 0, 0.1, 1 µM): 0.46 µM; % Inhibition at 20 μM ± SD, MAO-A [1]: 45.1 ± 7.7%; % Inhibition at 20 μM ± SD, MAO-B [4]: 29.1 ± 2.1%; CC50 at 12 h ([5]; 12 h, read-out: LC50): 130 µM |
| C=C=CCNCCCCNCC=C=C [MDL-72527, N^1,N^4-bis(2,3-butadienyl)-1,4-butanediamine] | 10.2 ± 0.9% | – | – | – | – | irreversible inhibitor | IC50 [8]: 89 to 100 µM; Ki [8]: 63 µM |
| CC(C)=CCNC(=N)NCCCCN [N-prenylagmatine] | – | – | – | – | – | competitive inhibitors | – |
| [H]/N=C(\N/C(=N/[H])NCCCCCCNC(=N)NC(=N)Nc1ccc(Cl)cc1)Nc1ccc(Cl)cc1 [chlorhexidine] | – | – | – | – | – | competitive inhibitors | Ki [8]: 0.55 to 3.8 µM |
| N=C(N)NCCCCCCCCNCCCCCCCCNC(=N)N [guazatine] | – | – | – | – | – | competitive inhibitors | – |
| COc1ccccc1CNCCCCCCNCCCCCCCCNCCCCCCNCc1ccccc1OC [methoctramine] | – | – | – | – | – | – | Ki [8]: 1.2 µM |
